What was measured:
ERK = test: Western blot of ERK activation (anti-diphosphorylated ERK) in PC12 cells; format: cell-based; conditions: PC12 cells, PD09859 10 μM or U0126 0.01-10 μM, 100 ng/ml EGF or NGF for 5 min
Experimental: (§1) In order to confirm the simulation, PC12 cells treated with EGF (100 ng/ml) were used to measure the time data tracking the activation levels of MEK and ERK, respectively. […] Western blot analysis was performed as follows. PC12 cells were treated with 100 ng/ml EGF for 0 to 120 min. Dissolved protein samples were reacted by using anti-phosphorylated MEK antibodies and anti-diphosphorylated ERK antibodies. Then, the resultant was reacted with anti-HRP (horse radish peroxidase)-conjugated secondary antibodies and confirmed the presence of a band via ECL chemoluminscence.
(§2) PC12 cells treated with EGF or nerve growth factor (NGF) were examined to evaluate the efficacies of PD09859 (10 μM) and U0126 (0.01-10 μM) in respect of MEK and ERK activation. Western blot analysis was performed as follows. PC12 cells treated with PD09859 and U0126 were treated with 100 ng/ml of EGF or NGF for 5 min. Then, the resulting protein sample was separated by performing SDS/PAGE, and then blotted by using anti-phosphorylated MEK and anti-diphosphoryated ERK antibodies. Again, the resultant was blotted by using anti-HRP (horseradish peroxidase) conjugated secondary antibodies and identified in bands by ECL chemo-luminescence.

MEK = test: Western blot of MEK activation (anti-phosphorylated MEK) in PC12 cells; format: cell-based; conditions: PC12 cells, U0126 0.01-10 μM, 100 ng/ml EGF or NGF for 5 min
Experimental: as §1, §2

MAPK pathway = conditions: cited from earlier work; for effect on ERK activation, as reported: literature report

Row | Compound | ERK activation / intracellular ERK phosphorylation (ERK) | MEK activation (MEK) | inhibition of MAPK pathway compared with the other inhibitor (MAPK pathway; U0126 versus PD09859, literature report) | effect on ERK activation, as reported (MAPK pathway)
1 | N#CC(=C(/N)Sc1ccccc1N)/C(C#N)=C(\N)Sc1ccccc1N [U0126] | suppressed by the MEK activity dose-dependently | not suppressed | more effective and specific | suppress ERK activation
2 | COc1cccc(-c2cc(=O)c3ccccc3o2)c1N [PD98059] | not suppressed | – | – | suppress ERK activation

Reference: patent US20060200330A1, “Methods and systems for modeling and simulating biochemical pathways” (KOREA INSTITUTE OF SCIENCE AND TECHNOLOGY, priority 2005, published 2006)
